According to patent publication US10898502B2, “Treatment of diseases using a combination of ultraviolet blood irradiation and antibiotics” (priority 2014, dated 2021):

Key:
[1] = Adverse reactions seen in the treated patients; conditions: Example 2 patient; medication discontinued
[2] = human, in vivo
[3] = test system: MAP; conditions: cited from earlier work
[4] = test system: M. tuberculosis; conditions: cited from earlier work
[5] = test system: cathelicidin; conditions: cited from earlier work

In the case of `NCC1(CC(=O)O)CCCCC1` [Gabapentin], the “Tolerability at the lowest recommended dose” value [1] is reported as “very dizzy”.
For `Cn1cnc([N+](=O)[O-])c1Sc1ncnc2nc[nH]c12` [azathioprine], the “Liver enzymes leading to discontinuation” value [2] was “elevated ALT and AST”.
For Vitamin A, the “Growth of MAP in vitro” value [3] is listed as “inhibit the growth of MAP”.
In the case of Vitamin D, the “Growth of MAP in vitro” value [3] is given as “inhibit the growth of MAP”, the “Proliferation of M. tuberculosis in macrophages” value [4] is given as “reduce the proliferation” and the “Intracellular production of cathelicidin” value [5] is given as “induces”.
